Results from ChEMBL document CHEMBL1201862, “PubChem BioAssay data set” (2004).
The source made the active and inactive calls.

Assays:
[1] = molecular target: Sphingosine 1-phosphate receptor 2 (Homo sapiens, UniProt O95136); assay: Dose Response Cell Based Assay for Agonists of the S1P2 Receptor. [Related pubchem assays: 729, 736, 843 ]; assay type: functional
[2] = M. tuberculosis H37Rv growth inhibitors, H37Rv strain (AID 1626); assay type: functional
[3] = growth inhibition of PfATP4-mutant resistant parasites – NITD609-resistant line, SYBR Green, dry powder, dose response (AID 1159571); assay type: functional, cell-based;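 note: parasites synchronized at ring stage by sorbitol before testing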
[4] = toxicity to human HepG2 hepatoma cells – cell-based, plate reader, dry powder samples, cytotoxicity control, dose response (AID 1159569); assay type: functional;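 note: inhibitor potency with signal falling toward the positive control level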
[5] = Dd2 malaria parasite growth inhibition potency – SYBR Green, dry powder samples, dose response (AID 1159566); assay type: functional, cell-based;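 note: potency for growth inhibition with lower SYBR green DNA signal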
[6] = P. falciparum Dd2 growth inhibitors, dose response, SYBR Green, cherry-picked samples (AID 1159567); assay type: functional, cell-based
[7] = growth inhibition of yeast DHODH-expressing 3D7 parasites – SYBR Green, dry powder samples, dose response (AID 1159570); assay type: functional, cell-based;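 note: parasite growth measured after 72 hours of compound exposure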
[8] = molecular target: T1, Endoribonuclease toxin MazF (Escherichia coli K-12, UniProt P0AE70); assay: substrate-only fluorescence increase artefacts – biochemical, single-stranded RNase substrate, counter-screen for MazEF activator project, dose response (AID 588502); assay type: functional
T1 sequence (P0AE70 whole entry): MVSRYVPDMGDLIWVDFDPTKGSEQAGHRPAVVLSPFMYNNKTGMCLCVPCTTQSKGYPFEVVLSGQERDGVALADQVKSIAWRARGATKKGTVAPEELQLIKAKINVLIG

[9] = molecular target: T1, Endoribonuclease toxin MazF; assay: activation of MazEF endoribonuclease cleavage – biochemical, fluorescence, single-stranded RNA substrate, uHTS hits, dose response (AID 588481); assay type: functional
[10] = molecular target: T2, Corticotropin-releasing factor receptor 2/Corticotropin-releasing factor-binding protein (Homo sapiens, UniProt P24387+Q13324); assay: activators of CRF receptor 2 with binding protein – uHTS hits, confirmation (AID 602473); assay type: functional; conditions: read-out: EC50_Mean
T2 sequence (Q13324 whole entry): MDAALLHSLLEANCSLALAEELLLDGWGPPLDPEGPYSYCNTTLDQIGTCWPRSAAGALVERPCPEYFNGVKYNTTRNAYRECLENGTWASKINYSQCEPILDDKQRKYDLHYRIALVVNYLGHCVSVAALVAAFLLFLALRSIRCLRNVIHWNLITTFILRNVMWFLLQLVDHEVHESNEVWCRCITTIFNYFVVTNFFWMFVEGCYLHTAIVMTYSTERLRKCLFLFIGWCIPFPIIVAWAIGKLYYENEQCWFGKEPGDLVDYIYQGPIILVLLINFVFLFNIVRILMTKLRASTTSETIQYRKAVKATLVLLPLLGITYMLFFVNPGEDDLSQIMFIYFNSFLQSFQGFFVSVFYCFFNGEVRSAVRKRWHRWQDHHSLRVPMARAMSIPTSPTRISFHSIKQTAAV
T2 sequence (P24387 whole entry): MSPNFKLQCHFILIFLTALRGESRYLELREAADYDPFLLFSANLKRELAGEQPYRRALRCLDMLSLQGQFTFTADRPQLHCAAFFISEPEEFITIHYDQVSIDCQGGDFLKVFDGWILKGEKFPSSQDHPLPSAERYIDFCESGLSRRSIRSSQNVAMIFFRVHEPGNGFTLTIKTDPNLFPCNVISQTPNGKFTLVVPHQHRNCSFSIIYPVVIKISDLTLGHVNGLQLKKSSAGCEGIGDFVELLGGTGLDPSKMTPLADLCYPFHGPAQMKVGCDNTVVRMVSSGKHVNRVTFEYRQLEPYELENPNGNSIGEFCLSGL

Ephrin type-A receptor 4 = Ephrin type-A receptor 4 (Mus musculus, UniProt Q03137); assay: EphA4 ligand-binding antagonists – biochemical, colorimetric, mouse EphA4, primary screen (AID 689); assay type: functional
[11] = molecular target: T3, Aryl hydrocarbon receptor (Homo sapiens, UniProt P35869); assay: Luminescence-based cell-based high throughput dose response assay for activators of the Aryl Hydrocarbon Receptor (AHR). [Related pubchem assays: 2796 (Primary screen (AHR activators in singlicate)), 2845 (Confirmation screen (AHR activators in triplicate)), 434939 (Counterscreen (PXR activators in triplicate)), 2804 (Summary (AHR activators))]; assay type: ADME
T3 sequence (P35869 whole entry): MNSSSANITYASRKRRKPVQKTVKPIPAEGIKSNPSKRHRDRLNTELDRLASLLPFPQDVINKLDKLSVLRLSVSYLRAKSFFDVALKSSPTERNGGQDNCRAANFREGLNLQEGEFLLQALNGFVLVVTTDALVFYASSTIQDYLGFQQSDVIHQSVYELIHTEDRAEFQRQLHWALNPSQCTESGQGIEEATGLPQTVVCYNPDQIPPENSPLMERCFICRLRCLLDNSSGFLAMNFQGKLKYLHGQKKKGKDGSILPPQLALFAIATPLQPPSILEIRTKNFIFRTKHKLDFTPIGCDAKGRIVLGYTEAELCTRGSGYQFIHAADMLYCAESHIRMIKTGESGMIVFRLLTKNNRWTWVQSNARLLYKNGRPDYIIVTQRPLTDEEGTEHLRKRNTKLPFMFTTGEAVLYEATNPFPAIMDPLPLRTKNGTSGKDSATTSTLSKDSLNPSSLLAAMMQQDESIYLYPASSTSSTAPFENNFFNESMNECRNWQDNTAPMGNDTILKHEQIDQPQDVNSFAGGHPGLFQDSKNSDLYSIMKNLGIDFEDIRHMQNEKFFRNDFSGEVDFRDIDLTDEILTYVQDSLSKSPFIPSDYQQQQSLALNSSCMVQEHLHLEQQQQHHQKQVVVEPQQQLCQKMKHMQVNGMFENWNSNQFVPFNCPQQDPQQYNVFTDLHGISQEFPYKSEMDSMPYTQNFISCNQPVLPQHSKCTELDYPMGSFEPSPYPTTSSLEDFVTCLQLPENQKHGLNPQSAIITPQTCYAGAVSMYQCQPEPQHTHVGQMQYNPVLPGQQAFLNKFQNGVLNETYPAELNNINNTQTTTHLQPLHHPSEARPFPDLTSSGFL

[12] = reduced cellular PGC1a acetyl-lysine signal – cell-based, cherry-picked samples, dose response (AID 720514); assay type: functional;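 note: potency may reflect raised or lowered acetylation signal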
[13] = molecular target: FAD-linked sulfhydryl oxidase ALR (Homo sapiens, UniProt P55789); assay: ALR-catalysed DTT oxidation blockers – biochemical, H2O2 detection, luminescence, cherry-pick, dose response (AID 493248)
[14] = molecular target: Oxysterols receptor LXR-beta (Homo sapiens, UniProt P55055); assay: LXR agonists, Gal4 luciferase reporter, dose response, counter-screen for ssDAF-12 agonist project, cell-based, luminescence, HEK293, S. stercoralis campaign (AID 720737); assay type: functional; conditions: read-out: IC50 (the source's name)
[15] = Luminescence Cell-Based Dose Confirmation HTS to Identify Inhibitors of Platelet Dense Granule Release. [Related pubchem assays: 1663 (Primary HTS), 1678 (Summary of Project)]; assay type: functional
[16] = Luminescence-based cell-based high throughput dose response assay to identify activators of the DAF-12 from the parasite S. stercoralis (ssDAF-12).; assay type: functional
[17] = molecular target: Luciferin 4-monooxygenase (Photinus pyralis, UniProt P08659); assay: inhibition of purified Photinus pyralis luciferase – biochemical, luminescence, dose response (AID 1891)
[18] = NIH3T3 cell viability loss – ATP luminescence, mouse fibroblasts, counter-screen, dose response (AID 2010); assay type: functional, cell-based;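 note: cells exposed to compound for about 90 hours before reading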
[19] = Trypanosoma cruzi growth suppression in host cells – NIH3T3 host cells, beta-gal luminescence, confirmation (AID 2044); assay type: functional, cell-based;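 note: intracellular parasites grown in NIH/3T3 mouse fibroblasts as host cells; luminescent beta-galactosidase reporter signal from transgenic T. cruzi replicating inside host cells; inhibitors lower the luminescence signal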
Fatty acid synthase [20] = molecular target: T4, Fatty acid synthase (Homo sapiens, UniProt P49327); assay: inhibition of human FAS-TE enzyme activity – biochemical, kinetic fluorescence intensity, dose response (AID 624326); assay type: functional;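 note: rate of fluorescence rise from hydrolysis of a fluorogenic O-methyl fluorescein ester substrate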
Fatty acid synthase [21] = molecular target: T4, Fatty acid synthase; assay: inhibition of human FAS-TE enzyme activity – biochemical, endpoint fluorescence intensity, uHTS hits, dose response (AID 624327); assay type: functional;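 note: fluorescence from hydrolysis of an O-methyl fluorescein acyl ester substrate by the enzyme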
[22] = toxicity to human hepatoma HepG2 cells – cell-based, cherry-picked samples, cytotoxicity control, dose response (AID 1159577); assay type: functional
[23] = rise of 2N DNA cells, HeLa – IC50, dose response (AID 1117349); assay type: functional, cell-based
[24] = rise of 4N DNA cells, HeLa – IC50, dose response (AID 1117351); assay type: functional, cell-based

T4 sequence (P49327 whole entry): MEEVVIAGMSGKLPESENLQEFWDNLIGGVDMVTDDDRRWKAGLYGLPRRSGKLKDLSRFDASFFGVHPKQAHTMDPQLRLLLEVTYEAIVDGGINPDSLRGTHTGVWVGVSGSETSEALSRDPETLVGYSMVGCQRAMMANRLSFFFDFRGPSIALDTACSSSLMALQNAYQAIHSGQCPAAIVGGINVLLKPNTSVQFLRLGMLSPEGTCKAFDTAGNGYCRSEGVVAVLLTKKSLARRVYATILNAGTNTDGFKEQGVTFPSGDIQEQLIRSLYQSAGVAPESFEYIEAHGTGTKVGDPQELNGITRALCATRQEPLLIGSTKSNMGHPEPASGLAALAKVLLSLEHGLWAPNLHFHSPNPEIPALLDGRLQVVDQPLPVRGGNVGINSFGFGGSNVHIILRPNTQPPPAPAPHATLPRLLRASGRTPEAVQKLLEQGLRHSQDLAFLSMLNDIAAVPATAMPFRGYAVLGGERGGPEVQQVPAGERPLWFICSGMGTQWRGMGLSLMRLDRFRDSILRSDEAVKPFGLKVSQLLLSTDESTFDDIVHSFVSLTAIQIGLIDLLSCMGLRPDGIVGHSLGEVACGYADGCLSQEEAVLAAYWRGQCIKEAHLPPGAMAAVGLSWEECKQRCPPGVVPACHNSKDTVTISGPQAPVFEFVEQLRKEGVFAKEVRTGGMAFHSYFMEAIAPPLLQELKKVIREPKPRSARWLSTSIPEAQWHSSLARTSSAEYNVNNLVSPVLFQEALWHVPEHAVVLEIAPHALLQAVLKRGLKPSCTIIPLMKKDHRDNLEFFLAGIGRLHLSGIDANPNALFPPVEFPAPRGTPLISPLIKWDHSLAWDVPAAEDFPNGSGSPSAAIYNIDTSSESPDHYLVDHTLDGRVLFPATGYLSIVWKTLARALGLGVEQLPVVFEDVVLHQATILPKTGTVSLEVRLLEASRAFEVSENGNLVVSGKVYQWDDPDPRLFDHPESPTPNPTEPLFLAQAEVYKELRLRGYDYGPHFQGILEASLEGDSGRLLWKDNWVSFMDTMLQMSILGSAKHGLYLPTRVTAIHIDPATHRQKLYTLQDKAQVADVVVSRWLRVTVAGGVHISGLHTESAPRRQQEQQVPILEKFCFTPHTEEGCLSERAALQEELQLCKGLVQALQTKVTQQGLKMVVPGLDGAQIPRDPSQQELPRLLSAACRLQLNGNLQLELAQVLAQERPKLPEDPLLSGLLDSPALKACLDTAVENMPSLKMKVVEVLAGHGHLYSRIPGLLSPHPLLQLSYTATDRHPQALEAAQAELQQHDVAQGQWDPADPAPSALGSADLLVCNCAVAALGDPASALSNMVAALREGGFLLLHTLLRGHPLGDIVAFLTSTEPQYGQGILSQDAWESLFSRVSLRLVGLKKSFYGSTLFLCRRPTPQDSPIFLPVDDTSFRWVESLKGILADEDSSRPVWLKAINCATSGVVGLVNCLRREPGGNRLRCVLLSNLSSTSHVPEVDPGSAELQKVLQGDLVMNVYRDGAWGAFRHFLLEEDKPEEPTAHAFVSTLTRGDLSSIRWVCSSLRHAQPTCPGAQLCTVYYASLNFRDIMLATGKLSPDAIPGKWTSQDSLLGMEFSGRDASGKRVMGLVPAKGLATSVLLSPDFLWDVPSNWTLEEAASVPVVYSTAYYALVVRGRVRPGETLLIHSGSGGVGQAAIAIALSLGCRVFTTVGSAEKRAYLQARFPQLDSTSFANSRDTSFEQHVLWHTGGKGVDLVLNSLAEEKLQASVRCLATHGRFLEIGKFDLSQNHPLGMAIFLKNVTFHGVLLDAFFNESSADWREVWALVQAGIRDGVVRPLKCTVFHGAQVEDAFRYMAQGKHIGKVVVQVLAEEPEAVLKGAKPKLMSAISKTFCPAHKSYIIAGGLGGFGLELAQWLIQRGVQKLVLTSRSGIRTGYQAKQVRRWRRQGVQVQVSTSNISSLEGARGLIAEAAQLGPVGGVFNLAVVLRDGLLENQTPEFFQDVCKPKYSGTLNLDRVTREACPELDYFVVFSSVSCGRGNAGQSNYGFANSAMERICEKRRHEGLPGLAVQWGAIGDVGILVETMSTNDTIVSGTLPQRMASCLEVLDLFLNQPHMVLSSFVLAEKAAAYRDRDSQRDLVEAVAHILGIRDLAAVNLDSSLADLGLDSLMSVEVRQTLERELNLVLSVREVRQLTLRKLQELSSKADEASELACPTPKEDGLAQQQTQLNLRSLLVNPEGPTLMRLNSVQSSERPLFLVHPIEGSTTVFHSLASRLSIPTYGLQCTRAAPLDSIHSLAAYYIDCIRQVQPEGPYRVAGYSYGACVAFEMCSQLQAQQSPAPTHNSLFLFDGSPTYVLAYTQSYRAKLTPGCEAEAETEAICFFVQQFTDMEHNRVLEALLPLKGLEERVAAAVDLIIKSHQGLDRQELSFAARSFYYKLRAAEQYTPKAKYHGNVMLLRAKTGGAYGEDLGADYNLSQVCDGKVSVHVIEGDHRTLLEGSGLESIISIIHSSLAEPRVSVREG
Chain of Sphingosine 1-phosphate receptor 2 (O95136 whole entry): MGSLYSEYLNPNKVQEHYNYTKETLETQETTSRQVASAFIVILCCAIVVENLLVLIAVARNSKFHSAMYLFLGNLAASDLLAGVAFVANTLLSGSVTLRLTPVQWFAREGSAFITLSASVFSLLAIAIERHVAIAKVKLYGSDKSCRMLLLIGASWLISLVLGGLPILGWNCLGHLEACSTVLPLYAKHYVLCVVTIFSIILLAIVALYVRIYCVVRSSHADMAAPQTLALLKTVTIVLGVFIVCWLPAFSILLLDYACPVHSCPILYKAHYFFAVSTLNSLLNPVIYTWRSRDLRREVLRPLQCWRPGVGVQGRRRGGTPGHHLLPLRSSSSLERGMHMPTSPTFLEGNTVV
Chain of Oxysterols receptor LXR-beta (P55055 whole entry, the tested form may be a part): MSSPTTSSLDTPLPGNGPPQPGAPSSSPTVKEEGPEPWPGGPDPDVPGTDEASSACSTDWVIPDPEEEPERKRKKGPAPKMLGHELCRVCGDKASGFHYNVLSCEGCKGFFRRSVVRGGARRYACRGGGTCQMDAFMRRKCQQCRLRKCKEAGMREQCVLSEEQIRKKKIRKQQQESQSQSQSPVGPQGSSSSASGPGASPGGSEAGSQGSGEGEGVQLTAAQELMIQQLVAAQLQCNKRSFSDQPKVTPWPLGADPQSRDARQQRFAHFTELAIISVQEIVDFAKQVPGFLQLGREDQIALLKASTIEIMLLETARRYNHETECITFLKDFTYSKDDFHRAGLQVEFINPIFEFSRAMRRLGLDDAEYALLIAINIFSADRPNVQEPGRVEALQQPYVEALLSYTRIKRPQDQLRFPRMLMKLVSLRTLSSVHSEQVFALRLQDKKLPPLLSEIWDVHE
Chain of FAD-linked sulfhydryl oxidase ALR (P55789 whole entry, the tested form may be a part): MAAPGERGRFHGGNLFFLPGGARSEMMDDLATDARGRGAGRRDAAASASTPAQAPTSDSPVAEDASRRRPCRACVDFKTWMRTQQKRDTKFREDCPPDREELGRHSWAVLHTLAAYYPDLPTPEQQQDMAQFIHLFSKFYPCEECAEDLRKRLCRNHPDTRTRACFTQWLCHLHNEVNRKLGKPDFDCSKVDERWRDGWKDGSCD
Chain of Luciferin 4-monooxygenase (P08659 whole entry): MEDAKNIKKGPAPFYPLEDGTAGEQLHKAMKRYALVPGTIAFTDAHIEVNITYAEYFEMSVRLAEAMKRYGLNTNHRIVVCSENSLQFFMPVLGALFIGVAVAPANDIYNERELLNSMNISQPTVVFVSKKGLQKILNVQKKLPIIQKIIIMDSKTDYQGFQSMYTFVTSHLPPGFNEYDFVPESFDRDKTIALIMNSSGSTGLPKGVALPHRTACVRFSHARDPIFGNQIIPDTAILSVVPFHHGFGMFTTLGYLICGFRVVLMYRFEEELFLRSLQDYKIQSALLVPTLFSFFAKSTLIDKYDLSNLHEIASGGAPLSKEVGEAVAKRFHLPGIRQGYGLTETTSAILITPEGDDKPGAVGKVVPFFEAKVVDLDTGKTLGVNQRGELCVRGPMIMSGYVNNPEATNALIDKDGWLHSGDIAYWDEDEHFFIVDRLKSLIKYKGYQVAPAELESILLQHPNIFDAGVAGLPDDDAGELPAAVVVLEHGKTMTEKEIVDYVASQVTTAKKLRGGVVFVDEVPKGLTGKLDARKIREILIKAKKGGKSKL
Chain of Ephrin type-A receptor 4 (Q03137 whole entry): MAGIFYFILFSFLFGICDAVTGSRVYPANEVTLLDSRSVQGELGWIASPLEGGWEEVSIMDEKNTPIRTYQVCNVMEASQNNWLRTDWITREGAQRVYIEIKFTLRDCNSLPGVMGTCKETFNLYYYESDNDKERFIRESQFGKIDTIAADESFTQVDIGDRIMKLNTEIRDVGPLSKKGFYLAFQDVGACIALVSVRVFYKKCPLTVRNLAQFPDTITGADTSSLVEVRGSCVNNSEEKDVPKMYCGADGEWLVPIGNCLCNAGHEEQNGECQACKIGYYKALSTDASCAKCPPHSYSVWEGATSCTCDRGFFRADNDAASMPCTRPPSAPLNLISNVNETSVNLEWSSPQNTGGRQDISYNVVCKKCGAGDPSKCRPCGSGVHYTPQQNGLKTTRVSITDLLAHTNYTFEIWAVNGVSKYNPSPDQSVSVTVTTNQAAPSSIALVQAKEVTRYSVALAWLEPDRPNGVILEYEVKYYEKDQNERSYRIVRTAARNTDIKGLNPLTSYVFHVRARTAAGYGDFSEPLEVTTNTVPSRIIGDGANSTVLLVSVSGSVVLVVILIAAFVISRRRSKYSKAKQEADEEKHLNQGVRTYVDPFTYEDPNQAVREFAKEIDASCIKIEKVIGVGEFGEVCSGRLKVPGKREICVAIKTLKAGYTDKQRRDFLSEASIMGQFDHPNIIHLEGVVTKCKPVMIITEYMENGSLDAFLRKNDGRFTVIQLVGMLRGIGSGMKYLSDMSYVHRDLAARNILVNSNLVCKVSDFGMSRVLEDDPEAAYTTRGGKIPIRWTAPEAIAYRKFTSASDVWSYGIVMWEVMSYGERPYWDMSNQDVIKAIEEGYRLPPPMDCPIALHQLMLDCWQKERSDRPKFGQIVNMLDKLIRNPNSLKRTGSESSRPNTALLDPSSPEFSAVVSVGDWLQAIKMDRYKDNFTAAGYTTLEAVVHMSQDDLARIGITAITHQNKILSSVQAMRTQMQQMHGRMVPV

CCCc1nn(-c2cc(Cl)ccc2OC)c2c1C(=O)CCC2
EC50 [1]: > 50 µM (not active)

O/C(=C\c1nc2ccccc2nc1/C=C(\O)c1ccccc1)c1ccccc1
IC50 [2]: > 100 µM (active)

COCC#Cc1ccc([C@@H]2[C@H](CO)N3CCCCN(S(=O)(=O)c4ccc(OC)cc4)C[C@@H]23)cc1
AC50 [3]: 1.48 µM (active) | AC50 [4]: 98.4 µM (active) | AC50 [5]: 1.33 µM (active) | AC50 [6]: 2.47 µM (active) | AC50 [7]: 1.81 µM (active)

CCCn1nc(-c2ccccc2)c2nc3ccccc3nc21
EC50 [8]: 61.7 µM (inactive) | EC50 [9]: > 99 µM (inactive) | EC50 [10]: 5.23 µM (active) | IC50 (Ephrin type-A receptor 4): 10.3 µM (active)

Cc1csc(NC(=O)CSc2ccc3nnc(-c4ccncc4)n3n2)n1
EC50 [11]: 12 µM (not active)

C[C@H](CO)N1C[C@H](C)[C@@H](CN(C)C(=O)C2CCCCC2)Oc2cc(C#Cc3ccncc3)ccc2S1(=O)=O
AC50 [12]: 9.86 µM (active)

Cc1cc(C)c(S(=O)(=O)Nc2ccc(O)cc2)cc1C
EC50 [1]: > 50 µM (not active) | AC50 [13]: 0.926 µM (active)

N/C(=N\N=C\c1cccc(O)c1)c1nonc1N
EC50 [14]: > 67.5 µM (inactive) | EC50 [15]: 1.75 µM (active) | IC50 [16]: > 67.5 µM (inactive) | EC50 [17]: 3.47 µM (active)

CN(CCO)c1cc(NCCCN2CCC(Cc3ccccc3)CC2)c2nonc2c1[N+](=O)[O-]
EC50 (cells): 0.215 µM (active) | EC50 [18]: > 60 µM (not active) | EC50 [19]: < 0.1 µM (active) | IC50 (Fatty acid synthase [20]): 6.52 µM (active) | IC50 (Fatty acid synthase [21]): 12.2 µM (active)

Cc1ccc(-c2ccc3c(c2)O[C@H](CN(C)Cc2ccncc2)[C@@H](C)CN([C@H](C)CO)S3(=O)=O)cc1
AC50 [22]: 22.1 µM (active) | AC50 [6]: 5.12 µM (active)

COCCOC(=O)C1=C(C)NC(C)=C(C(=O)OC/C=C/c2ccccc2)C1c1cccc([N+](=O)[O-])c1 (stereo not drawn) [CILNIDIPINE]
IC50 [23]: > 10 µM (inactive) | IC50 [24]: > 10 µM (inactive)
